Assay results reported in patent US8546377B2 (AbbVie Inc., priority 2009, dated 2013).
Where two headings read alike, the source gives them in different places.

What was measured:
[1] = biological target: T1, 5HT2B receptors (Homo sapiens, UniProt P41595); test: Human 5-HT2B functional assay in CHO-K1 cells (calcium flux, FLIPR); assay type: cell-based
T1 construct: expressed in transfected cells; host or cells: CHO-K1 cells
Method: (§1) (iii) Human 5-HT2C and 5-HT2B Functional Assay in CHO-K1 Cells
(§2) CHO-K1 cells over-expressing 5HT2C or 5HT2B receptors were grown in 1272 cm^2 flasks to 70-80% confluency in UltraCHO media supplemented with 1% dialyzed fetal bovine serum (FBS), 250 μg/mL zeocin, 100 U/mL penicillin/streptomycin, and 400 μg/mL geneticin. The cells were dissociated from the flasks using 0.05% trypsin, resuspended in freezing media and stored in liquid nitrogen until use. Calcium flux experiments were done using frozen cells. The cells were diluted in media containing 1% dialyzed FBS and 100 U/mL penicillin/streptomycin and plated into 384-well poly-D-Lysine coated plates (15,000 cells/well). Then the plates were incubated overnight in a cell incubator at 37° C., 5% CO2. On the next day, the growth media was replaced with media without FBS and further incubated overnight. On day three, the changes in intracellular Ca^2+ were determined using calcium sensitive fluorescent dye, Ca4 (MDS Analytical Technologies, Sunnyvale, Calif.) by loading 15 μL of diluted dye with 2.5 mM probenecid into the cells containing media and incubated at room temperature for 60 minutes in dark.
(§3) Fluorescence measurements were read at 25° C. at an excitation wavelength of 480 nm and an emission wavelength of 530 nm in FLIPR (MDS). Baseline fluorescence was measured for the first 10 seconds and then 15 μL of 4× concentrations of serotonin/test compounds was added to the cell plate. The fluorescence intensity was captured every second for the first 1 minute followed by every 5 seconds for an additional 2 minutes. The increase in fluorescent response was determined and was normalized to the response of serotonin. The concentration response of compounds was done from a starting concentration of 10 μM, 1:10 dilution across 6 wells with a final dimethyl sulfoxide concentration of 0.2% and was fitted using a 4-parameter logistic equation. The concentration at which a compound exerts half its maximal effect was named as ‘effective concentration 50’ or ‘EC50’.
(§4) Emax is the maximum functional response or efficacy expressed as a percentage relative to the effect of serotonin.

[2] = biological target: T2, 5HT2C receptors (Homo sapiens, UniProt P28335); test: Human 5-HT2C functional assay in CHO-K1 cells (calcium flux, FLIPR); assay type: cell-based; parameters: expressed in transfected cells; host or cells: CHO-K1 cells
T2 sequence (P28335 33-458): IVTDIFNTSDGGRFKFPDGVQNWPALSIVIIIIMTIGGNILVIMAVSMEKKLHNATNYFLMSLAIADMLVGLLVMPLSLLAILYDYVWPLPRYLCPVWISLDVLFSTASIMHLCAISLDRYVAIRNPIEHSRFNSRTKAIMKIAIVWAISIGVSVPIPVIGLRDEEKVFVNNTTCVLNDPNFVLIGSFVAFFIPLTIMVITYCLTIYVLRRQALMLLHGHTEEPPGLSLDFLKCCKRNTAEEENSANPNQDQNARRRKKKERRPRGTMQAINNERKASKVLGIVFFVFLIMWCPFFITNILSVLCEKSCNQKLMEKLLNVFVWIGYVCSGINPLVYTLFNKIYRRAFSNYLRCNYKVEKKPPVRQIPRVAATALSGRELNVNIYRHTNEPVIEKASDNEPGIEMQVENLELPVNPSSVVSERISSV
Method: as §1, §2, §3, §4

[3] = CHO-K1 cells over-expressing 5HT2B, calcium flux, read-out: EC50 (μM), 5-HT2B Agonist Activity
[4] = CHO-K1 cells over-expressing 5HT2C, calcium flux, read-out: EC50 (μM), 5-HT2c Agonist Activity
[5] = CHO-K1 cells, percentage relative to the effect of serotonin, read-out: Emax (%), 5-HT2c Agonist Activity
[6] = CHO-K1, read-out: Emax (%), 5-HT2B Agonist Activity
[7] = CHO-K1, read-out: Emax (%), 5-HT2c Agonist Activity, CHO-K1 cells, percentage relative to the effect of serotonin
[8] = CHO-K1 cells, percentage relative to the effect of serotonin, read-out: Emax (%), 5-HT2B Agonist Activity

T1 sequence (P41595 whole entry): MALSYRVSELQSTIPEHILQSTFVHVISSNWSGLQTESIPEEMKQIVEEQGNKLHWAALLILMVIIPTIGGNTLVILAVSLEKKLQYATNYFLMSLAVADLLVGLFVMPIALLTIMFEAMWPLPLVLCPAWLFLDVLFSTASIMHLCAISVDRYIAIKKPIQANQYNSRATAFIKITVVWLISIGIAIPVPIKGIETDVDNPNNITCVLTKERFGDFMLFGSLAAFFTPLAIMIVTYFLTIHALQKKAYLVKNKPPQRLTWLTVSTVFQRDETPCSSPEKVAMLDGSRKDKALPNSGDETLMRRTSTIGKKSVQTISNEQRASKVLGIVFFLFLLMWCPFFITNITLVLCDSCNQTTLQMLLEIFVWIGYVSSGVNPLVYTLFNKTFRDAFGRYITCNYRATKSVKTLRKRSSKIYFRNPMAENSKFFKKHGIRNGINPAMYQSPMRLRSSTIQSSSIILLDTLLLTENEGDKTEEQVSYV

| SMILES | EC50 [1, 3] | EC50 [2, 4] | Emax [2, 5] | Emax [1, 8] | Emax ([2]; CHO-K1, read-out: Emax (%), 5-HT2c Agonist Activity) | EC50 [1] | Emax [1, 6] | EC50 [2] | Emax [2, 7] |
| --- | --- | --- | --- | --- | --- | --- | --- | --- | --- |
| Fc1ccc2c(c1F)OCC[C@H]1CNCCN21 [Example 218, (4aS)-8,9-difluoro-2,3,4,4a,5,6-hexahydro-1H-pyrazino[2,1-d][1,5]benzoxazepine] |  |  |  |  |  | 0.07 µM | 20% | 0.002 µM | 100% |
| Cc1ccc2c(c1)N1CCNC[C@@H]1CCO2 [Example 137, (4aS)-10-methyl-2,3,4,4a,5,6-hexahydro-1H-pyrazino[2,1-d][1,5]benzoxazepine] |  |  |  |  |  | 0.05 µM | 60% | 0.002 µM | > 120% |
| O=C1C[C@H]2CNCCN2c2cc(OC(F)F)ccc2N1 [Example 131, (4aS)-10-(difluoromethoxy)-1,2,3,4,4a,5-hexahydropyrazino[1,2-a][1,5]benzodiazepin-6(7H)-one] | 0.08 µM | 0.04 µM | 110% | 20% |  |  |  |  |  |
| c1cc(-c2ccncc2)c2c(c1)N1CCNC[C@@H]1CCO2 [Example 247, (4aS)-8-(pyridin-4-yl)-2,3,4,4a,5,6-hexahydro-1H-pyrazino[2,1-d][1,5]benzoxazepine] |  |  |  |  |  | > 10 µM |  | 0.007 µM | 85% |
| Fc1cccc2c1OCC[C@H]1CNCCN21 [Example 139, (4aS)-8-fluoro-2,3,4,4a,5,6-hexahydro-1H-pyrazino[2,1-d][1,5]benzoxazepine] |  |  |  |  |  | 0.06 µM | 20% | 0.0004 µM | > 120% |
| O=C1CC2CNCCN2c2cc(COc3ccccc3)ccc2N1 (stereo not drawn) [Example 111, 10-(phenoxymethyl)-1,2,3,4,4a,5-hexahydropyrazino[1,2-a][1,5]benzodiazepin-6(7H)-one] | 0.7 µM | 0.02 µM | > 120% | 20% |  |  |  |  |  |
| c1ccc2c(c1)OCC[C@@H]1CNCCN21 [Example 255, (4aR)-2,3,4,4a,5,6-hexahydro-1H-pyrazino[2,1-d][1,5]benzoxazepine] |  |  |  |  |  | 0.09 µM | 70% | 0.001 µM | 95% |
| Cc1c(F)ccc2c1OCC[C@H]1CNCCN21 [Example 244] |  |  |  |  |  | 0.03 µM | 15% | 0.0004 µM | 95% |
| O=C1CC2CNCCN2c2cc(-c3cccc(-c4ccccc4)c3)ccc2N1 (stereo not drawn) [Example 59, 10-(biphenyl-3-yl)-1,2,3,4,4a,5-hexahydropyrazino[1,2-a][1,5]benzodiazepin-6(7H)-one] | > 10 µM | 0.04 µM | > 120% |  |  |  |  |  |  |
| CC(C)Oc1cccc(-c2ccc3c(c2)N2CCNCC2CC(=O)N3)c1 (stereo not drawn) [Example 94, 10-(3-isopropoxyphenyl)-1,2,3,4,4a,5-hexahydropyrazino[1,2-a][1,5]benzodiazepin-6(7H)-one] | > 10 µM | 0.008 µM | > 120% |  |  |  |  |  |  |
| Cc1ccc2c(c1)NC(=O)CC1CNCCN21 (stereo not drawn) [Example 49, 9-methyl-1,2,3,4,4a,5-hexahydropyrazino[1,2-a][1,5]benzodiazepin-6(7H)-one] |  |  |  |  |  | > 10 µM |  | 0.06 µM | 100% |
| CCC(C)Oc1ccc2c(c1)N1CCNC[C@@H]1CC(=O)N2 (stereo partly drawn) [Example 174, (4aS)-10-sec-butoxy-1,2,3,4,4a,5-hexahydropyrazino[1,2-a][1,5]benzodiazepin-6(7H)-one] | > 10 µM | 0.007 µM | > 120% |  |  |  |  |  |  |
| CN1CCN2c3ccccc3OCC[C@@H]2C1 [Example 268, (4aR)-3-methyl-2,3,4,4a,5,6-hexahydro-1H-pyrazino[2,1-d][1,5]benzoxazepine] |  |  |  |  |  | 0.2 µM | 50% | 0.01 µM | 95% |
| O=C1CC2CNCCN2c2cc(-c3ccccc3F)ccc2N1 (stereo not drawn) [Example 70, 10-(2-fluorophenyl)-1,2,3,4,4a,5-hexahydropyrazino[1,2-a][1,5]benzodiazepin-6(7H)-one] | > 10 µM | 0.06 µM | > 120% |  |  |  |  |  |  |
| Clc1ccc2c(c1)OCC[C@H]1CNCCN21 [Example 179, (4aS)-9-chloro-2,3,4,4a,5,6-hexahydro-1H-pyrazino[2,1-d][1,5]benzoxazepine] |  |  |  |  |  | > 10 µM |  | 0.008 µM | > 120% |

The next lines start with results.

| EC50 [1, 3] | EC50 [2, 4] | Emax [2, 5] | Emax [1, 8] | Emax ([2]; CHO-K1, read-out: Emax (%), 5-HT2c Agonist Activity) | SMILES | EC50 [1] | Emax [1, 6] | EC50 [2] | Emax [2, 7] |
| --- | --- | --- | --- | --- | --- | --- | --- | --- | --- |
| > 10 µM | 0.07 µM | 90% |  |  | CS(=O)(=O)c1ccc(-c2ccc3c(c2)OCC[C@H]2CNCCN32)cc1 [Example 230, (4aS)-9-[4-(methylsulfonyl)phenyl]-2,3,4,4a,5,6-hexahydro-1H-pyrazino[2,1-d][1,5]benzoxazepine] |  |  |  |  |
| > 10 µM | 0.04 µM | > 120% |  |  | C[C@H](Cc1ccccc1)Oc1ccc2c(c1)N1CCNC[C@H]1CC(=O)N2 [Example 166, (4aR)-10-{[(2R)-1-phenylpropan-2-yl]oxy}-1,2,3,4,4a,5-hexahydropyrazino[1,2-a][1,5]benzodiazepin-6(7H)-one] |  |  |  |  |
| 0.1 µM | 0.001 µM | > 120% | 50% |  | CC(C)=Cc1ccc2c(c1)N1CCNC[C@@H]1CCO2 [Example 208, (4aS)-10-(2-methylprop-1-en-1-yl)-2,3,4,4a,5,6-hexahydro-1H-pyrazino[2,1-d][1,5]benzoxazepine] |  |  |  |  |
| 5 µM | 0.05 µM | > 120% | 10% |  | Fc1ccc(-c2ccc3c(c2)N2CCNC[C@@H]2CCO3)cc1 [Example 205, (4aS)-10-(4-fluorophenyl)-2,3,4,4a,5,6-hexahydro-1H-pyrazino[2,1-d][1,5]benzoxazepine] |  |  |  |  |
| > 10 µM | 0.1 µM | 50% |  |  | CN1CCN2c3cc(-c4cccc(S(C)(=O)=O)c4)ccc3OCC[C@H]2C1 [Example 221, (4aS)-3-methyl-10-[3-(methylsulfonyl)phenyl]-2,3,4,4a,5,6-hexahydro-1H-pyrazino[2,1-d][1,5]benzoxazepine] |  |  |  |  |
| > 10 µM | 0.02 µM | > 120% |  |  | O=C1C[C@H]2CNCCN2c2cc(OCC3CC3)ccc2N1 [Example 170, (4aS)-10-(cyclopropylmethoxy)-1,2,3,4,4a,5-hexahydropyrazino[1,2-a][1,5]benzodiazepin-6(7H)-one] |  |  |  |  |
| 0.35 µM | 0.0059 µM | > 120% | 77% |  | O=C1CC2CNCCN2c2cc(OCc3cccc(F)c3)ccc2N1 (stereo not drawn) [Example 156, 10-[(3-fluorobenzyl)oxy]-1,2,3,4,4a,5-hexahydropyrazino[1,2-a][1,5]benzodiazepin-6(7H)-one] |  |  |  |  |
| 0.2 µM | 0.009 µM |  |  | 95% | FCCN1CCN2c3cccc(F)c3OCC[C@H]2C1 [Example 245, (4aS)-8-fluoro-3-(2-fluoroethyl)-2,3,4,4a,5,6-hexahydro-1H-pyrazino[2,1-d][1,5]benzoxazepine] |  | 20% |  |  |
| 0.4 µM | 0.0008 µM | 100% | 50% |  | CC(O)c1cccc(-c2ccc3c(c2)N2CCNC[C@@H]2CCO3)c1 (stereo partly drawn) [Example 222, 1-{3-[(4aS)-2,3,4,4a,5,6-hexahydro-1H-pyrazino[2,1-d][1,5]benzoxazepin-10-yl]phenyl}ethanol] |  |  |  |  |
| > 10 µM | 0.02 µM | 100% |  |  | CC(O)c1cccc(-c2ccc3c(c2)OCC[C@H]2CNCCN32)c1 (stereo partly drawn) [Example 229, 1-{3-[(4aS)-2,3,4,4a,5,6-hexahydro-1H-pyrazino[2,1-d][1,5]benzoxazepin-9-yl]phenyl}ethanol] |  |  |  |  |
|  | 0.004 µM | 88% |  |  | O=C1CC2CNCCN2c2cc(/C=C/c3ccccc3F)ccc2N1 (stereo not drawn) [Example 141, 10-[(E)-2-(2-fluorophenyl)vinyl]-1,2,3,4,4a,5-hexahydropyrazino[1,2-a][1,5]benzodiazepin-6(7H)-one] |  |  |  |  |
